The record followed here is patent publication US9718788B2, “Heteroaryl compounds useful as inhibitors of E1 activating enzymes” (MILLENNIUM PHARMACEUTICALS, INC., priority 2006, dated 2017).

This experiment has as its target T1, recombinant human NAE enzyme (Homo sapiens, UniProt Q8TBC4).
T1 construct: His (N); made in house; host or cells: Sf9 insect cells (baculovirus, Bac-to-Bac)
T1 sequence (Q8TBC4 1-463): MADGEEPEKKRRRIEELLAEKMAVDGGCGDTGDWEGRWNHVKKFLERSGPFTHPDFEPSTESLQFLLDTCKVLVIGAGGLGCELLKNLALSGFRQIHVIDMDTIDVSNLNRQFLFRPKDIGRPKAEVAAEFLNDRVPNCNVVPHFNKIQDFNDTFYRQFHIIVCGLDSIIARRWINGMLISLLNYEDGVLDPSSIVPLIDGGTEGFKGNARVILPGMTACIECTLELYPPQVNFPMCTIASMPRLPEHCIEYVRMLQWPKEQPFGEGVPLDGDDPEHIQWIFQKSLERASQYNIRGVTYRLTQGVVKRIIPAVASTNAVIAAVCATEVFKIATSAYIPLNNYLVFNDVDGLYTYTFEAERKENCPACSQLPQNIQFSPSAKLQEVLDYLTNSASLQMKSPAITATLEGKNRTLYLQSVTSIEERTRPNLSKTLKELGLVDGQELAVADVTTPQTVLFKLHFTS
T1 sequence (Q13564 1-534 partner): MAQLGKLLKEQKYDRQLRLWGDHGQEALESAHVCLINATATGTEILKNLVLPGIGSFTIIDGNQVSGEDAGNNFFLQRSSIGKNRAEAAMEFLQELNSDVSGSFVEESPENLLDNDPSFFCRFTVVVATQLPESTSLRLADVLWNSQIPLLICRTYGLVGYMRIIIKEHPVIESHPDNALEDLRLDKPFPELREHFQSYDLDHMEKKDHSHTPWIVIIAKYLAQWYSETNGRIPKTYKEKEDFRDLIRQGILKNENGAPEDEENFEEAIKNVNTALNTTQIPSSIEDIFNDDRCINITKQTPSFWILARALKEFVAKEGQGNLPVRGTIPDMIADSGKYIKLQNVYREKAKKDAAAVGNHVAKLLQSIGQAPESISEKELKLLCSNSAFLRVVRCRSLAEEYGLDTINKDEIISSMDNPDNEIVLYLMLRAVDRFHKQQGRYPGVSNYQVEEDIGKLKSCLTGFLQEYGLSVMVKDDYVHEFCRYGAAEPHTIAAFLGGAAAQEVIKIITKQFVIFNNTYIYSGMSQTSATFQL
The experiment can be described thus: Nedd8-Activating Enzyme (NAE) HTRF Assay. Format: biochemical. Conditions: 20 μM ATP. Summed up:
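Recombinant human NAE (NAEα/His-NAEβ from Sf9 cells) at 0.20 nM with 20 μM ATP, 0.01 μM Ubc12-GST and 0.075 μM Nedd8-Flag in HEPES pH 7.5, 105 min at 24° C. EDTA stop; Eu-anti-FLAG/APC-anti-GST HTRF read after 1 h.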
In general terms: TR-FRET usually uses a lanthanide donor and a delayed reading to cut background.

One may read the IC50 as the midpoint of a concentration-inhibition curve. Take `NS(=O)(=O)OC[C@@H]1C[C@@H](Nc2cc(N[C@H]3CCc4ccccc43)nc(=O)[nH]2)C[C@@H]1O` [Compound I-54, [(1S,2S,4R)-4-({6-[(1S)-2,3-dihydro-1H-inden-1-ylamino]-2-oxo-2,3-dihydropyrimidin-4-yl}amino)-2-hydroxycyclopentyl]methyl sulfamate]: the IC50 is above 500 nM (bound given in nM) and below 10000 nM (bound given in μM).

As to `NS(=O)(=O)OC[C@@H]1C[C@@H](Nc2ncnc3[nH]c(-c4ccccc4OCc4ccccc4)nc23)C[C@@H]1O` [Compound I-68, [(1S,2S,4R)-4-({8-[2-(benzyloxy)phenyl]-9H-purin-6-yl}amino)-2-hydroxycyclopentyl]methyl sulfamate], the 50% inhibitory concentration (IC50) (bound given in nM) was at most 500 nM.

With `CC1(C)Cc2cccc(-c3nc4c(N[C@@H]5C[C@@H](COS(N)(=O)=O)[C@@H](O)C5)ncnc4[nH]3)c2O1` [Compound I-100, ((1S,2S,4R)-4-{[8-(2,2-dimethyl-2,3-dihydro-1-benzofuran-7-yl)-9H-purin-6-yl]amino}-2-hydroxycyclopentyl)methyl sulfamate], the IC50 (bound given in nM) is at most 500 nM.

As to `CN(C)c1ccc(-c2nc3ncnc(O[C@@H]4C[C@@H](COS(N)(=O)=O)[C@@H](O)C4)c3[nH]2)c2ccccc12` [Compound I-103, [(1S,2S,4R)-4-({8-[4-(dimethylamino)-1-naphthyl]-7H-purin-6-yl}oxy)-2-hydroxycyclopentyl]methyl sulfamate], for the setting “bound given in nM”, the IC50 was at most 500 nM.

For the molecule `NS(=O)(=O)OC[C@@H]1C[C@@H](Oc2ccncn2)C[C@@H]1O` [Compound I-97, [(1S,2S,4R)-2-hydroxy-4-(pyrimidin-4-yloxy)cyclopentyl]methyl sulfamate], under “bound given in μM”, the IC50 is above 10000 nM.

Turning to `CN(C)C(=O)[C@H]1Cc2ccccc2[C@H]1Nc1cc(O[C@@H]2C[C@@H](COS(N)(=O)=O)[C@@H](O)C2)ncn1` [Compound I-66, ((1S,2S,4R)-4-{[6-({(1S,2S)-2-[(dimethylamino)carbonyl]-2,3-dihydro-1H-inden-1-yl}amino)pyrimidin-4-yl]oxy}-2-hydroxycyclopentyl)methyl sulfamate], the IC50 is above 500 nM (bound given in nM) and below 10000 nM (bound given in μM).

`NS(=O)(=O)OC[C@@H]1C[C@@H](Nc2ncnc3[nH]c(-c4ccccc4Cl)nc23)C[C@@H]1O` [Compound I-34, ((1S,2S,4R)-4-{[8-(2-chlorophenyl)-9H-purin-6-yl]amino}-2-hydroxycyclopentyl)methyl sulfamate]: the IC50 (bound given in nM) was at most 500 nM.

Consider `NS(=O)(=O)OC[C@@H]1C[C@@H](Nc2ncnc3[nH]c(Cc4ccccc4)nc23)C[C@@H]1O` [Compound I-88, {(1S,2S,4R)-4-[(8-benzyl-9H-purin-6-yl)amino]-2-hydroxycyclopentyl}methyl sulfamate], for which, where the note is “bound given in nM”, the IC50 was at most 500 nM.

Regarding `NS(=O)(=O)OC[C@H]1C[C@@H](Nc2cc(N[C@H]3CCc4c(F)ccc(F)c43)ncn2)[C@H](O)[C@@H]1O` [Compound I-6, {(1R,2R,3S,4R)-4-[(6-{[(1S)-4,7-difluoro-2,3-dihydro-1H-inden-1-yl]amino}-pyrimidin-4-yl)amino]-2,3-dihydroxycyclopentyl}methyl sulfamate], the IC50 (bound given in nM) was at most 500 nM.

Consider `CC1(C)C[C@H](Nc2ncnc(N[C@@H]3C[C@@H](COS(N)(=O)=O)[C@@H](O)C3)n2)c2ccccc21` [Compound I-134, {(1S,2S,4R)-4-[(4-{[(1S)-3,3-dimethyl-2,3-dihydro-1H-inden-1-yl]amino}-1,3,5-triazin-2-yl)amino]-2-hydroxycyclopentyl}methyl sulfamate], for which the IC50 (bound given in nM) was at most 500 nM.

Consider `CN(Cc1ccccc1)c1cc(N[C@@H]2C[C@H](COS(N)(=O)=O)[C@@H](O)[C@H]2O)ncn1` [Compound I-22, [(1R,2R,3S,4R)-4-({6-[benzyl(methyl)amino]pyrimidin-4-yl}amino)-2,3-dihydroxycyclopentyl]methyl sulfamate], for which the IC50 (bound given in μM) was above 10000 nM.

With `Cn1c(-c2ccccc2)nc2ncnc(N[C@@H]3C[C@@H](COS(N)(=O)=O)[C@@H](O)C3)c21` [Compound I-36, {(1S,2S,4R)-2-hydroxy-4-[(7-methyl-8-phenyl-7H-purin-6-yl)-amino]cyclopentyl}methyl sulfamate], the IC50 is, setting by setting: (bound given in nM) above 500 nM; (bound given in μM) below 10000 nM.

Regarding `NS(=O)(=O)OC[C@@H]1C[C@@H](Nc2ncnc3[nH]c(-c4cccc5ccccc45)cc23)C[C@@H]1O` [Compound I-74, ((1S,2S,4R)-2-hydroxy-4-{[6-(1-naphthyl)-7H-pyrrolo[2,3-d]pyrimidin-4-yl]amino}cyclopentyl)methyl sulfamate], the IC50 (bound given in nM) is at most 500 nM.

Turning to `NS(=O)(=O)OC[C@H]1C[C@@H](Nc2cc(N[C@H]3CCCc4ccccc43)ncn2)[C@H](O)[C@@H]1O` [Compound I-12, [(1R,2R,3S,4R)-2,3-dihydroxy-4-({6-[(1S)-1,2,3,4-tetrahydronaphthalen-1-ylamino]pyrimidin-4-yl}amino)cyclopentyl]methyl sulfamate], the IC50 (bound given in nM) was at most 500 nM.

As for `NS(=O)(=O)OC[C@@H]1C[C@@H](Nc2ncnc3[nH]c(-c4ccc(Cl)cc4)nc23)C[C@@H]1O` [Compound I-111, ((1S,2S,4R)-4-{[8-(4-chlorophenyl)-9H-purin-6-yl]amino}-2-hydroxycyclopentyl)methyl sulfamate], under “bound given in nM”, the IC50 is at most 500 nM.

In the case of `NS(=O)(=O)OC[C@@H]1C[C@@H](Oc2cc(N[C@H]3CCc4ccccc43)ncn2)C[C@@H]1O` [Compound I-31, [(1S,2S,4R)-4-({6-[(1S)-2,3-Dihydro-1H-inden-1-ylamino]pyrimidin-4-yl}oxy)-2-hydroxycyclopentyl]methyl sulfamate], the IC50 (bound given in μM) is above 10000 nM.

Take `NS(=O)(=O)OC[C@@H]1C[C@@H](Oc2ncnc3[nH]c(-c4ccccc4)nc23)C[C@@H]1O` [Compound I-63, {(1S,2S,4R)-2-hydroxy-4-[(8-phenyl-9H-purin-6-yl)oxy]cyclopentyl}methyl sulfamate]: the IC50 (bound given in nM) is at most 500 nM.

As for `NS(=O)(=O)OC[C@H]1C[C@@H](Nc2ncnc3[nH]cnc23)[C@H](O)[C@@H]1O` [Compound I-3, [(1R,2R,3S,4R)-2,3-dihydroxy-4-(9H-purin-6-ylamino)cyclopentyl]methyl sulfamate], the IC50 (bound given in nM) is at most 500 nM.

Consider `NS(=O)(=O)OC[C@H]1C[C@@H](Nc2cc(N[C@H]3CCC[C@@H]3OCc3ccccc3)ncn2)[C@H](O)[C@@H]1O` [Compound I-92, {(1R,2R,3S,4R)-4-[(6-{[(1S,2S)-2-(benzyloxy)cyclopentyl]amino}pyrimidin-4-yl)amino]-2,3-dihydroxycyclopentyl}methyl sulfamate], for which the IC50 is, setting by setting: (bound given in nM) above 500 nM; (bound given in μM) below 10000 nM.

Consider `NS(=O)(=O)OC[C@H]1C[C@@H](Nc2cc(N[C@H]3CCc4ccccc43)ncn2)[C@H](O)[C@@H]1O` [Compound I-29, [(1R,2R,3S,4R)-4-({6-[(1S)-2,3-dihydro-1H-inden-1-ylamino]pyrimidin-4-yl}-amino)-2,3-dihydroxycyclopentyl]methyl sulfamate], for which, where the note is “bound given in nM”, the IC50 was at most 500 nM.

For the molecule `NS(=O)(=O)OC[C@@H]1C[C@@H](Oc2cc(N[C@H]3CCCc4ccccc43)ncn2)C[C@@H]1O` [Compound I-40, [(1S,2S,4R)-2-hydroxy-4-({6-[(1S)-1,2,3,4-tetrahydronaphthalen-1-ylamino]pyrimidin-4-yl}oxy)cyclopentyl]methyl sulfamate], the IC50 (bound given in nM) is at most 500 nM.

Take `CN(C)C[C@H]1Cc2ccccc2[C@H]1Nc1cc(O[C@@H]2C[C@@H](COS(N)(=O)=O)[C@@H](O)C2)ncn1` [Compound I-53, ((1S,2S,4R)-4-{[6-({(1S,2R)-2-[(dimethylamino)methyl]-2,3-dihydro-1H-inden-1-yl}amino)pyrimidin-4-yl]oxy}-2-hydroxycyclopentyl)methyl sulfamate]: the IC50 is above 500 nM (bound given in nM) and below 10000 nM (bound given in μM).

On to `NS(=O)(=O)OC[C@@H]1C[C@@H](Nc2ncnc3nc(-c4cccc5cccnc45)[nH]c23)C[C@@H]1O` [Compound I-84, {(1S,2S,4R)-2-hydroxy-4-[(8-quinolin-8-yl-7H-purin-6-yl)amino]cyclopentyl}methyl sulfamate], for which the IC50 (bound given in nM) was at most 500 nM.

As to `NS(=O)(=O)OC[C@H]1C[C@@H](Nc2ccnc(C(=O)N3CCc4ccccc43)c2)[C@H](O)[C@@H]1O` [Compound I-145, ((1R,2R,3S,4R)-4-{[2-(2,3-dihydro-1H-indol-1-ylcarbonyl)pyridin-4-yl]amino}-2,3-dihydroxycyclopentyl)methyl sulfamate], the IC50 (bound given in μM) was above 10000 nM.
